# Test results as given in patent publication US10065990B2, “Cyclic peptide compound, and preparation method, pharmaceutical composition and use thereof” (HANGZHOU GUANYU BIO-MEDICAL CO., LTD, priority 2013, dated 2018).
# Read-outs that look alike come from different tables or passages of the source.
# Assays:
# [1] = molecular target: T1, HDAC11 (Homo sapiens, UniProt Q96DB2); test: HDAC biochemical activity measurement (fluorescent substrate deacetylation);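 also: HDAC11 enzyme acting on an acetyl-lysine fluorogenic substrate, then a developer frees the fluorophore, read at excitation 360 nm and emission 460 nm, IC50 over a compound dilution series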
# T1 sequence (Q96DB2 1-347): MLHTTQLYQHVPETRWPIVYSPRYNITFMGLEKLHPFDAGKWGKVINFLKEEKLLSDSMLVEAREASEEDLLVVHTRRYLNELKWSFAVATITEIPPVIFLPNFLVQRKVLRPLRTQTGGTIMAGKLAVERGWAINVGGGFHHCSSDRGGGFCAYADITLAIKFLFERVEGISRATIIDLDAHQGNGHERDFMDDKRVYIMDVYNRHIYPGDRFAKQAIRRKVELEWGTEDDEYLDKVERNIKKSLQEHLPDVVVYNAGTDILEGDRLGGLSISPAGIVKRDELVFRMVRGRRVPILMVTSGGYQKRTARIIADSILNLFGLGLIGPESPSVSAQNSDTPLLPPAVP
# [2] = molecular target: HDAC3 (Homo sapiens, UniProt O15379); test: as above;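 also: fluorogenic acetyl-lysine substrate (20 µM) deacetylated by HDAC3, then developer added for 15 min at room temperature, release of fluorophore read at excitation 360 nm, emission 460 nm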
# Method: The chemical activity of the compound is determined according to the degree of deacetylation inhibition of the HDAC enzyme. This experiment measured the degree of deacetylation related to tumor proliferation and metastasis of HDAC1, HDAC2, HDAC3, HDAC8, HDAC11 five subtypes HDAC enzymes. After the substrate containing an acetylated lysine side chain and HDAC enzyme are labeled with a fluorescent label, the fluorescent substrate is de acetyl. The fluorescent labeled substrate is cleaved by the enzyme, and the fluorescent substance is released, which generates 460 nm emission light under the excitation of 360 nm light.
# HDAC substrate was diluted with reaction buffer to 200M (reaction concentration of 20M), the HDAC enzyme was diluted to the appropriate concentration, then added different concentrations of the test compounds and acted at 37° C. 30 minutes, and then added the same volume of 2-times concentration substrate developing solution (developer), incubated at room temperature for 15 minutes.
# [3] = tested on: HT1080 (human fibrosarcoma cells); test: MTT cancer cell growth inhibition; type: cell-based; details: MTT
# Summary of the method: (§1)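 GI50 values come from MTT viability: after 72 h compound exposure (final 10^−5–10^−10 M, three wells each) of cells plated overnight at 1500/well in 10% FBS medium, MTT was given for 4 h. The DMSO-solubilised formazan was then measured at 570 nm.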
# [4] = tested on: N-87 (human gastric cancer cells); test: MTT cancer cell growth inhibition; type: cell-based; details: MTT, 72 hours incubation, N-87 cells, read-out: GI50 N-87
# Summary of the method: as §1
# [5] = tested on: K562 (human leukemia cells); test: MTT cancer cell growth inhibition; type: cell-based; details: MTT, 72 hours incubation, K562 cells, read-out: GI50 K562
# Summary of the method: as §1
# [6] = tested on: HCC827 (human non-small cell lung cancer cells); test: MTT cancer cell growth inhibition; type: cell-based; details: MTT, 72 hours incubation, HCC827 cells, read-out: GI50 HCC827
# Summary of the method: as §1
# [7] = tested on: Bel-7402 (human hepatoma cells); test: MTT cancer cell growth inhibition; type: cell-based; details: MTT, 72 hours incubation, Bel-7402 cells, read-out: GI50 Bel-7402
# Summary of the method: as §1
# [8] = molecular target: HDAC1 (Homo sapiens, UniProt Q13547); test: HDAC biochemical activity measurement (fluorescent substrate deacetylation);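 also: fluorogenic acetyl-lysine substrate (20 µM) deacetylated by HDAC1, then developer releases fluorophore read at 360 nm excitation and 460 nm emission, inhibitor incubated 30 min at 37 °C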
# [9] = molecular target: T2, HDAC8 (Homo sapiens, UniProt Q9BY41); test: as above; details: 37° C. 30 minutes
# T2 sequence (Q9BY41 1-377): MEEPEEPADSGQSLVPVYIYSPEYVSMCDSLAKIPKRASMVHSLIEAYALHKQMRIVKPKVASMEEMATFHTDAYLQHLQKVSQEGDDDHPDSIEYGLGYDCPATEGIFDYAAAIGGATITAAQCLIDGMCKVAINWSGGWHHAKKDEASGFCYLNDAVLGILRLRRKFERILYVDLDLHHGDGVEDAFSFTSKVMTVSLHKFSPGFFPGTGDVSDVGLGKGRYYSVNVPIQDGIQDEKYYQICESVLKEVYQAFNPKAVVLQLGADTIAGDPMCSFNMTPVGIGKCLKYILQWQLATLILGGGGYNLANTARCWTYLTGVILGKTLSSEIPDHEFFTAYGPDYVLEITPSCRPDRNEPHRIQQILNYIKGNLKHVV
# [10] = molecular target: HDAC2 (Homo sapiens, UniProt Q92769); test: as above; details: 37° C. 30 minutes;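 also: HDAC2 enzyme with an acetyl-lysine fluorescent substrate, then developer added, fluorescence read at excitation 360 nm and emission 460 nm, inhibition measured across several compound concentrations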
# [11] = molecular target: T3, HDAC7 (Homo sapiens, UniProt Q8WUI4); test: as above; details: HDAC7; 37° C. 30 minutes;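 also: fluorogenic deacetylation assay using acetyl-lysine substrate at 20 µM, enzyme and compound incubated 30 min at 37 °C, then developer added, fluorescence read at 360/460 nm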
# T3 sequence (Q8WUI4 1-952): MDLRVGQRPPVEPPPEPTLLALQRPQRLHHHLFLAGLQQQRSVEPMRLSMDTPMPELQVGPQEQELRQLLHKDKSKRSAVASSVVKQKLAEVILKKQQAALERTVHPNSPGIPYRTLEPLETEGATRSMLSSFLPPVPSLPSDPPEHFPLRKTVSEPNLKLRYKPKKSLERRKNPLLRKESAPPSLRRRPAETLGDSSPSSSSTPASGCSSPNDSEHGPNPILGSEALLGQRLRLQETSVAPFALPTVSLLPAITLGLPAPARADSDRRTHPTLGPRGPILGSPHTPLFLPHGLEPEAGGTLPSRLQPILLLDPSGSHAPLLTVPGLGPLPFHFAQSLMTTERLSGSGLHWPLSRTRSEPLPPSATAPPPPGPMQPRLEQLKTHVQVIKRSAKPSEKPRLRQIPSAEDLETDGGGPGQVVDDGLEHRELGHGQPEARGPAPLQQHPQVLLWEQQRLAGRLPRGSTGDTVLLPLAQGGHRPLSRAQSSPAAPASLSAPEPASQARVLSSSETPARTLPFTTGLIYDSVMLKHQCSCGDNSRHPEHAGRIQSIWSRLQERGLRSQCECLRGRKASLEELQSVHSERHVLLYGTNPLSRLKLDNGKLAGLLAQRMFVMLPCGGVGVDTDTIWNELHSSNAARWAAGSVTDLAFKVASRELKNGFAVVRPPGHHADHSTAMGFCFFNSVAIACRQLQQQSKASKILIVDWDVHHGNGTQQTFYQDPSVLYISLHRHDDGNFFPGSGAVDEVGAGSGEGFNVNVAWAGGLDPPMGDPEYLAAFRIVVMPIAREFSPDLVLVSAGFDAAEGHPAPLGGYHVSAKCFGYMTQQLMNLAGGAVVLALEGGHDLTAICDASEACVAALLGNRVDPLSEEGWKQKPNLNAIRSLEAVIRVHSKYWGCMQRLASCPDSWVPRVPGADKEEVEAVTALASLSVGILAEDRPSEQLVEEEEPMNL
# [12] = Homo sapiens, HT-1080, 72 h, 72 hours incubation, read-out: GI50 HT1
# [13] = HDAC1, 37° C. 30 minutes, read-out: IC50 HDAC1
# [14] = Homo sapiens, HT-1080, 72 h, HT1080 cells, 72 hours incubation, read-out: GI50 HT1
# [15] = Homo sapiens, HT-1080, 72 h, 72 hours, present invention, read-out: GI50 HT1080, a
# [16] = Table 2, read-out: IC50 HDAC1, a (compounds of the present invention)
# [17] = read-out: IC50 HDAC11, HDAC11, 37° C. 30 minutes
# [18] = read-out: IC50 HDAC3, HDAC3, 37° C. 30 minutes
# Sequence of HDAC2 (Q92769 whole entry, species assumed): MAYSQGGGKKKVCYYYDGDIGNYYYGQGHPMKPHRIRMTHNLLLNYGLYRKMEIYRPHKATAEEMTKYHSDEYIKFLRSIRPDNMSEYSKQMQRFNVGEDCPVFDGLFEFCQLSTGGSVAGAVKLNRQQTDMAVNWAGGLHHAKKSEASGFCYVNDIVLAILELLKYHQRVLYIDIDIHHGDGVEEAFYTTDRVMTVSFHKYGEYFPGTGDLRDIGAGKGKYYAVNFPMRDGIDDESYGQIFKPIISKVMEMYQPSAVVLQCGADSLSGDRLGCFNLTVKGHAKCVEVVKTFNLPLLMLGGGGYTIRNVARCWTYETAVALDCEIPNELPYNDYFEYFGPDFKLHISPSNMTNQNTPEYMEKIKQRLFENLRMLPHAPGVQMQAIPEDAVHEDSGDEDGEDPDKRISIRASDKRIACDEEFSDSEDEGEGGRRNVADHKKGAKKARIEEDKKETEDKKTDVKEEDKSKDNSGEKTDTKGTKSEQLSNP
# Sequence of HDAC3 (O15379 whole entry, species assumed): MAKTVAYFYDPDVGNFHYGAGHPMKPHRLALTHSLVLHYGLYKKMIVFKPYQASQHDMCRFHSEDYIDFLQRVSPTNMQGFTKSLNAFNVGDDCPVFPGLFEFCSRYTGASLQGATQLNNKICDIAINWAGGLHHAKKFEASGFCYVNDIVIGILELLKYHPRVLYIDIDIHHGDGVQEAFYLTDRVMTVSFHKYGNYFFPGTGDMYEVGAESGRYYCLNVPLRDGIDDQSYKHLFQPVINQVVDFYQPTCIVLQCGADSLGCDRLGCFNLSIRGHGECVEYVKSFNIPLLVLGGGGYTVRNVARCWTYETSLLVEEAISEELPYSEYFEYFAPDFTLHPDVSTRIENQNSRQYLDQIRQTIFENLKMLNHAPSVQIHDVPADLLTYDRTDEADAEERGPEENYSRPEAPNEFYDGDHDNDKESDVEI
# Sequence of HDAC3 (Q9Y618 395-489 partner limits assumed, species assumed): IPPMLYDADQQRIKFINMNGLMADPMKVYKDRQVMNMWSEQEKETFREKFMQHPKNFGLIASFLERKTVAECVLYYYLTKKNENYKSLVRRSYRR
# Sequence of HDAC1 (Q13547 whole entry, species assumed): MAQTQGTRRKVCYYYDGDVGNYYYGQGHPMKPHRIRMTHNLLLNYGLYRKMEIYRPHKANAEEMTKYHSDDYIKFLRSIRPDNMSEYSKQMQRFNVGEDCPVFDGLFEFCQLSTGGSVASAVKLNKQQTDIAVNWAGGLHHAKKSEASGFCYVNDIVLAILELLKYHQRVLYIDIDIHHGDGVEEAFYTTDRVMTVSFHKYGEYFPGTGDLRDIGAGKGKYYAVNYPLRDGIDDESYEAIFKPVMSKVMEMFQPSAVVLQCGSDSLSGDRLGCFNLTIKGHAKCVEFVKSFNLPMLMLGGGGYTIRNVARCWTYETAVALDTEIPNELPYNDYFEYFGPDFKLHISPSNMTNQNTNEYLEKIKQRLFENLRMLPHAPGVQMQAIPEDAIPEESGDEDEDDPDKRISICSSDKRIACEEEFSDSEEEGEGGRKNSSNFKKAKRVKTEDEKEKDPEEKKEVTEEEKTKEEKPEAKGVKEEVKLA
Compound,IC50 [1] [nM],IC50 [2] [nM],"GI50 [3, 12] [nM]","GI50 ([4]; Homo sapiens, 72 h) [nM]","GI50 ([5]; Homo sapiens, K562, 72 h) [nM]","GI50 ([6]; Homo sapiens, HCC827, 72 h) [nM]","GI50 ([7]; Homo sapiens, Bel-7402, 72 h) [nM]","IC50 [8, 13] [nM]",IC50 [9] [nM],IC50 [10] [nM],IC50 HDAC7 [11],"IC50 [1, 17] [nM]","IC50 [2, 18] [nM]",other results
C/C=C1\NC(=O)c2nccc(n2)CNC(=O)C[C@@H](/C=C/CCSC(C)=O)OC(=O)[C@H](C)NC1=O [Example 24],97,43,40,35,37,31,95,74,63,83,no activity,,,
C/C=C1\NC(=O)c2ccc(F)c(n2)CNC(=O)C[C@@H](/C=C/CCSC(C)=O)OC(=O)[C@H](CCCCN)NC1=O [Example 74],672,231,40,37,39,43,43,273,435,129,no activity,,,
C/C=C1\NC(=O)c2nc(cc(SC)n2)CNC(=O)C[C@@H](/C=C/CCSC(C)=O)OC(=O)[C@H](C(C)C)NC1=O [Compound 216],,,,,,,,155,52,33,no activity,81,62,"GI50 ([3]; HT1080 cells, 72 hours incubation, read-out: GI50 HT1): 50 nM; GI50 [4]: 37 nM; GI50 [5]: 56 nM; GI50 [6]: 59 nM; GI50 [7]: 23 nM"
C/C=C1\NC(=O)c2cccc(n2)NC(=O)C[C@@H](/C=C/CCSC(C)=O)OC(=O)[C@H](C(C)C)NC1=O [Example 22],97,61,50,39,34,59,84,93,47,54,no activity,,,

# Stronger by IC50 [8, 13], values ahead:
IC50 [1] [nM],IC50 [2] [nM],"GI50 [3, 12] [nM]","GI50 ([4]; Homo sapiens, 72 h) [nM]","GI50 ([5]; Homo sapiens, K562, 72 h) [nM]","GI50 ([6]; Homo sapiens, HCC827, 72 h) [nM]","GI50 ([7]; Homo sapiens, Bel-7402, 72 h) [nM]","IC50 [8, 13] [nM]",IC50 [9] [nM],IC50 [10] [nM],IC50 HDAC7 [11],"IC50 [1, 17] [nM]","IC50 [2, 18] [nM]",Compound,other results
93,53,80,51,34,55,25,38,16,29,no activity,,,C/C=C1\NC(=O)c2nc(ccc2F)CCNC(=O)C[C@@H](/C=C/CCSC(C)=O)OC(=O)[C@H](C(C)C)NC1=O [Compound 103],
69,62,,57,41,34,47,28,33,36,no activity,,,C/C=C1\NC(=O)c2cccc(n2)CNC(=O)C[C@@H](/C=C/CCSC(=O)CCCCCCC)OC(=O)[C@H](CC(C)C)NC1=O [Compound 241],"GI50 [3, 14]: 30 nM; GI50 [3, 15]: 34 nM; IC50 [8, 16]: < 30 nM"
,,70,71,41,74,74,43,45,53,no activity,96,42,C/C=C1\NC(=O)c2cc(F)cc(n2)CNC(=O)C[C@@H](/C=C/CCSC(=O)CCCC)OC(=O)[C@H](C(C)C)NC1=O [Compound 40],"IC50 ([8]; Table 3, column C, read-out: IC50 HDAC1, C (six-membered ring with substituents)): 43 nM"
96,34,80,55,63,84,84,51,41,29,no activity,,,C/C=C1\NC(=O)c2ccc(F)c(n2)CNC(=O)C[C@@H](/C=C/CCSC(=O)CCCCCCC)OC(=O)[C@H](Cc2ccccc2)NC1=O [Example 71],
,,,26,73,26,75,43,67,38,no activity,72,66,C/C=C1\NC(=O)c2cccc(n2)CNC(=O)C[C@@H](/C=C/CCSC(=O)CCCCCCC)OC(=O)[C@@H](C)NC1=O [Compound 236],"GI50 [3, 14]: 190 nM; GI50 [3, 15]: 197 nM; IC50 [8, 16]: < 50 nM"
